{
  "source": "PubChem BioAssay AID1259407",
  "about": "(Chemical Carcinogenesis Research Information System (CCRIS), 2018)",
  "system": "CCRIS mutagenicity, Ames/micronucleus/aberration tests",
  "assay": "CCRIS mutagenicity studies",
  "key": {"[1]": {"conditions": "Test System: AMES SALMONELLA TYPHIMURIUM, Strain/Indicator: TA98, Metabolic Activation: NONE, Method: STANDARD PLATE"}, "[2]": {"conditions": "Test System: AMES SALMONELLA TYPHIMURIUM, Strain/Indicator: TA98, Metabolic Activation: RAT, LIVER, S-9, AROCLOR 1254, Method: STANDARD PLATE"}, "[3]": {"conditions": "Test System: AMES SALMONELLA TYPHIMURIUM, Strain/Indicator: TA100, Metabolic Activation: NONE, Method: STANDARD PLATE"}, "[4]": {"conditions": "Test System: AMES SALMONELLA TYPHIMURIUM, Strain/Indicator: TA100, Metabolic Activation: RAT, LIVER, S-9, AROCLOR 1254, Method: STANDARD PLATE"}, "[5]": {"conditions": "Test System: AMES SALMONELLA TYPHIMURIUM, Strain/Indicator: TA100, Metabolic Activation: NONE, Method: PREINCUBATION"}},
  "note": "Calls of active or inactive are those of the source. The rule behind the calls is not given here.",
  "data": [
    {"smiles": "O=S(c1cc(Cl)cc(Cl)c1O)c1cc(Cl)cc(Cl)c1O", "values": [
      {"measurement": "mutagenic call", "setting": "Test System: AMES SALMONELLA TYPHIMURIUM, Strain/Indicator: TA97, Metabolic Activation: NONE, Method: STANDARD PLATE", "result": "inactive; negative"},
      {"measurement": "mutagenic call", "setting": "Test System: AMES SALMONELLA TYPHIMURIUM, Strain/Indicator: TA97, Metabolic Activation: RAT, LIVER, S-9, AROCLOR 1254, Method: STANDARD PLATE", "result": "inactive; negative"},
      {"measurement": "mutagenic call", "setting": "[1]", "result": "active; positive"},
      {"measurement": "mutagenic call", "setting": "[2]", "result": "inactive; negative"},
      {"measurement": "mutagenic call", "setting": "[3]", "result": "active; positive"},
      {"measurement": "mutagenic call", "setting": "[4]", "result": "inactive; negative"},
      {"measurement": "mutagenic call", "setting": "Test System: AMES SALMONELLA TYPHIMURIUM, Strain/Indicator: TA102, Metabolic Activation: NONE, Method: STANDARD PLATE", "result": "inactive; negative"},
      {"measurement": "mutagenic call", "setting": "Test System: AMES SALMONELLA TYPHIMURIUM, Strain/Indicator: TA102, Metabolic Activation: RAT, LIVER, S-9, AROCLOR 1254, Method: STANDARD PLATE", "result": "inactive; negative"}
    ]},
    {"smiles": "c1ccc(-c2ccncc2)nc1", "values": [
      {"measurement": "mutagenic call", "setting": "Test System: AMES SALMONELLA TYPHIMURIUM, Strain/Indicator: TA97, Metabolic Activation: RAT, LIVER, S-9, PHENOBARBITAL, Method: STANDARD PLATE", "result": "inactive; negative"},
      {"measurement": "mutagenic call", "setting": "Test System: AMES SALMONELLA TYPHIMURIUM, Strain/Indicator: TA98, Metabolic Activation: RAT, LIVER, S-9, PHENOBARBITAL, Method: STANDARD PLATE", "result": "active; positive"},
      {"measurement": "mutagenic call", "setting": "Test System: AMES SALMONELLA TYPHIMURIUM, Strain/Indicator: TA100, Metabolic Activation: RAT, LIVER, S-9, PHENOBARBITAL, Method: STANDARD PLATE", "result": "inactive; negative"},
      {"measurement": "mutagenic call", "setting": "Test System: AMES SALMONELLA TYPHIMURIUM, Strain/Indicator: TA1535, Metabolic Activation: RAT, LIVER, S-9, PHENOBARBITAL, Method: STANDARD PLATE", "result": "inactive; negative"},
      {"measurement": "mutagenic call", "setting": "Test System: AMES SALMONELLA TYPHIMURIUM, Strain/Indicator: TA1537, Metabolic Activation: RAT, LIVER, S-9, PHENOBARBITAL, Method: STANDARD PLATE", "result": "active; positive"},
      {"measurement": "mutagenic call", "setting": "Test System: AMES SALMONELLA TYPHIMURIUM, Strain/Indicator: TA1538, Metabolic Activation: RAT, LIVER, S-9, PHENOBARBITAL, Method: STANDARD PLATE", "result": "inactive; negative"}
    ]},
    {"smiles": "C=C(C=O)CCCC", "values": [
      {"measurement": "mutagenic call", "setting": "[5]", "result": "active; positive"},
      {"measurement": "mutagenic call", "setting": "Test System: AMES SALMONELLA TYPHIMURIUM, Strain/Indicator: TA100, Metabolic Activation: RAT LIVER S-9, AROCLOR 1254, Method: PREINCUBATION", "result": "active; positive"}
    ]},
    {"smiles": "O=C(c1ccccc1)[C@@H]1O[C@@H]1c1ccc(Br)cc1", "values": [
      {"measurement": "mutagenic call", "setting": "[1]", "result": "inactive; negative"},
      {"measurement": "mutagenic call", "setting": "[2]", "result": "inactive; negative"},
      {"measurement": "mutagenic call", "setting": "[3]", "result": "inactive; negative"},
      {"measurement": "mutagenic call", "setting": "[4]", "result": "inactive; negative"}
    ]},
    {"smiles": "CC(=O)CC1CCC(=O)/C=C\\C(=O)OC(CC(C)=O)CCC(=O)/C=C\\C(=O)O1", "note": "(stereo not drawn)", "values": [
      {"measurement": "mutagenic call", "setting": "Test System: CHINESE HAMSTER V-79, Strain/Indicator: V-79 (HPRT)/6-THIOGUANINE, Metabolic Activation: NONE", "result": "active; positive"},
      {"measurement": "mutagenic call", "setting": "Test System: CHINESE HAMSTER V-79, Strain/Indicator: V-79 (HPRT)/6-THIOGUANINE, Metabolic Activation: RAT, LIVER, S-9, 3-METHYLCHOLANTHRENE", "result": "active; positive"}
    ]},
    {"smiles": "Nc1cc(Cl)ccc1Cl", "values": [
      {"measurement": "mutagenic call", "setting": "Test System: AMES SALMONELLA TYPHIMURIUM, Strain/Indicator: TA97, Metabolic Activation: HAMSTER, LIVER, S-9, AROCLOR 1254 (10%), Method: PREINCUBATION", "result": "inactive; negative"},
      {"measurement": "mutagenic call", "setting": "Test System: AMES SALMONELLA TYPHIMURIUM, Strain/Indicator: TA97, Metabolic Activation: HAMSTER, LIVER, S-9, AROCLOR 1254 (30%), Method: PREINCUBATION", "result": "inactive; negative"},
      {"measurement": "mutagenic call", "setting": "Test System: AMES SALMONELLA TYPHIMURIUM, Strain/Indicator: TA97, Metabolic Activation: NONE, Method: PREINCUBATION", "result": "inactive; negative"},
      {"measurement": "mutagenic call", "setting": "Test System: AMES SALMONELLA TYPHIMURIUM, Strain/Indicator: TA97, Metabolic Activation: RAT, LIVER, S-9, AROCLOR 1254 (10%), Method: PREINCUBATION", "result": "inactive; negative"},
      {"measurement": "mutagenic call", "setting": "Test System: AMES SALMONELLA TYPHIMURIUM, Strain/Indicator: TA97, Metabolic Activation: RAT, LIVER, S-9, AROCLOR 1254 (30%), Method: PREINCUBATION", "result": "inactive; negative"},
      {"measurement": "mutagenic call", "setting": "Test System: AMES SALMONELLA TYPHIMURIUM, Strain/Indicator: TA98, Metabolic Activation: HAMSTER, LIVER, S-9, AROCLOR 1254 (10%), Method: PREINCUBATION", "result": "inactive; negative"},
      {"measurement": "mutagenic call", "setting": "Test System: AMES SALMONELLA TYPHIMURIUM, Strain/Indicator: TA98, Metabolic Activation: HAMSTER, LIVER, S-9, AROCLOR 1254 (30%), Method: PREINCUBATION", "result": "inactive; negative"},
      {"measurement": "mutagenic call", "setting": "Test System: AMES SALMONELLA TYPHIMURIUM, Strain/Indicator: TA98, Metabolic Activation: NONE, Method: PREINCUBATION", "result": "inactive; negative"},
      {"measurement": "mutagenic call", "setting": "Test System: AMES SALMONELLA TYPHIMURIUM, Strain/Indicator: TA98, Metabolic Activation: RAT, LIVER, S-9, AROCLOR 1254 (10%), Method: PREINCUBATION", "result": "inactive; negative"},
      {"measurement": "mutagenic call", "setting": "Test System: AMES SALMONELLA TYPHIMURIUM, Strain/Indicator: TA98, Metabolic Activation: RAT, LIVER, S-9, AROCLOR 1254 (30%), Method: PREINCUBATION", "result": "inactive; negative"},
      {"measurement": "mutagenic call", "setting": "Test System: AMES SALMONELLA TYPHIMURIUM, Strain/Indicator: TA100, Metabolic Activation: HAMSTER, LIVER, S-9, AROCLOR 1254 (10%), Method: PREINCUBATION", "result": "inactive; negative"},
      {"measurement": "mutagenic call", "setting": "Test System: AMES SALMONELLA TYPHIMURIUM, Strain/Indicator: TA100, Metabolic Activation: HAMSTER, LIVER, S-9, AROCLOR 1254 (30%), Method: PREINCUBATION", "result": "inactive; negative"},
      {"measurement": "mutagenic call", "setting": "[5]", "result": "inactive; negative"},
      {"measurement": "mutagenic call", "setting": "Test System: AMES SALMONELLA TYPHIMURIUM, Strain/Indicator: TA100, Metabolic Activation: RAT, LIVER, S-9, AROCLOR 1254 (10%), Method: PREINCUBATION", "result": "inactive; negative"},
      {"measurement": "mutagenic call", "setting": "Test System: AMES SALMONELLA TYPHIMURIUM, Strain/Indicator: TA100, Metabolic Activation: RAT, LIVER, S-9, AROCLOR 1254 (30%), Method: PREINCUBATION", "result": "inactive; negative"},
      {"measurement": "mutagenic call", "setting": "Test System: AMES SALMONELLA TYPHIMURIUM, Strain/Indicator: TA1535, Metabolic Activation: HAMSTER, LIVER, S-9, AROCLOR 1254 (10%), Method: PREINCUBATION", "result": "inactive; negative"},
      {"measurement": "mutagenic call", "setting": "Test System: AMES SALMONELLA TYPHIMURIUM, Strain/Indicator: TA1535, Metabolic Activation: HAMSTER, LIVER, S-9, AROCLOR 1254 (30%), Method: PREINCUBATION", "result": "inactive; negative"},
      {"measurement": "mutagenic call", "setting": "Test System: AMES SALMONELLA TYPHIMURIUM, Strain/Indicator: TA1535, Metabolic Activation: NONE, Method: PREINCUBATION", "result": "inactive; negative"},
      {"measurement": "mutagenic call", "setting": "Test System: AMES SALMONELLA TYPHIMURIUM, Strain/Indicator: TA1535, Metabolic Activation: RAT, LIVER, S-9, AROCLOR 1254 (10%), Method: PREINCUBATION", "result": "inactive; negative"},
      {"measurement": "mutagenic call", "setting": "Test System: AMES SALMONELLA TYPHIMURIUM, Strain/Indicator: TA1535, Metabolic Activation: RAT, LIVER, S-9, AROCLOR 1254 (30%), Method: PREINCUBATION", "result": "inactive; negative"},
      {"measurement": "mutagenic call", "setting": "Test System: UDS RODENT HEPATOCYTES, Strain/Indicator: THY INCORP (NON-S-PHASE), Metabolic Activation: NONE, Method: AUTORADIOGRAPHY", "result": "inactive; negative"}
    ]}
  ]
}
